The values below come from US7192924B2, “Corticotropin releasing factor 2 receptor agonists” (priority 2002, dated 2007).

In one experiment the target is T1, CRF1R (Homo sapiens, UniProt P34998).
T1 sequence (P34998 24-415): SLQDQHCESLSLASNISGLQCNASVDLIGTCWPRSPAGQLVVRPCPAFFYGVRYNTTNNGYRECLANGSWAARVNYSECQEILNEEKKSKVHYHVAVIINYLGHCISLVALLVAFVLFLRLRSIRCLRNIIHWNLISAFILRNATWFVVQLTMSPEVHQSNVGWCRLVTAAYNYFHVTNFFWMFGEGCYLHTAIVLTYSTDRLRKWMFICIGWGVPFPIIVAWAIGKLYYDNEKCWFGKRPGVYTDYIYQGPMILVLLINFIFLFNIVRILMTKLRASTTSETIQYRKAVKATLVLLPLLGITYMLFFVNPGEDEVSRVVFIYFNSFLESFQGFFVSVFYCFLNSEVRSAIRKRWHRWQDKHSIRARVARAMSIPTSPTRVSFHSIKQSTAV
Description: CRF1R agonist activity (EC50, Emax), called comparative CRF binding. The class given is cell-based. The note with it: read-out: CRF1R EC50. An outline of the steps: (§1)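 Peptides were applied to cells carrying a single CRFR subtype, then cAMP levels or CRE-driven reporter expression were quantified against vehicle-treated cells.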

For the next experiment, the target named is T2, CRF2R (Homo sapiens, UniProt Q13324).
T2 sequence (Q13324 1-411): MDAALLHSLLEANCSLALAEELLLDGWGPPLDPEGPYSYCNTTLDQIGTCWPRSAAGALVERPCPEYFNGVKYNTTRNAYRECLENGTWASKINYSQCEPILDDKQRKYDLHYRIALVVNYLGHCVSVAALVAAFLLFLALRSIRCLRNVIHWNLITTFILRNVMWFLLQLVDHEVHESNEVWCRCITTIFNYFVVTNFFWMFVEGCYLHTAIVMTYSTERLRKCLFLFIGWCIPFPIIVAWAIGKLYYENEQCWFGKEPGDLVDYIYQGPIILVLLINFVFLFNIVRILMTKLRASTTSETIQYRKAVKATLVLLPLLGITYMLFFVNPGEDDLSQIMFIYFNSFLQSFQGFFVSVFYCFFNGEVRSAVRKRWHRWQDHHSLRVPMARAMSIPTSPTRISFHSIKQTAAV
Description: CRF2R agonist activity (EC50, Emax), called comparative CRF binding. It is filed as cell-based. The following applies: read-out: CRF2R EC50. An outline of the steps:
as §1

Structures are written as SMILES. Peptide text beside a SMILES is read from it. Some results are limits rather than exact numbers.

As usually defined, the EC50 is the concentration that produces a half-maximal response. Take `CC[C@H](C)[C@H](NC(=O)[C@H](C)NC(=O)[C@H](CC(N)=O)NC(=O)[C@H](CCC(N)=O)NC(=O)[C@H](CCC(=O)O)NC(=O)[C@H](C)NC(=O)[C@H](CCCNC(=N)N)NC(=O)[C@H](CCC(=O)O)NC(=O)[C@H](CCCNC(=N)N)NC(=O)[C@H](CCC(N)=O)NC(=O)[C@H](CO)NC(=O)[C@H](CCC(N)=O)NC(=O)[C@@H](NC(=O)[C@H](CCCNC(=N)N)NC(=O)[C@H](C)NC(=O)[C@H](CC(C)C)NC(=O)[C@H](CCC(=O)O)NC(=O)[C@H](CC(C)C)NC(=O)[C@H](CC(C)C)NC(=O)[C@@H](NC(=O)[C@H](CCCNC(=N)N)NC(=O)[C@H](CC(C)C)NC(=O)[C@H](CC(C)C)NC(=O)[C@H](CCC(N)=O)NC(=O)[C@H](CC(C)C)NC(=O)[C@@H]1CCCN1C(=O)[C@H](CC(C)C)NC(=O)[C@H](CC(=O)O)NC(=O)[C@@H](NC(=O)[C@H](CO)NC(=O)[C@H](CC(C)C)NC(=O)[C@H](CO)NC(=O)[C@@H]1CCCN1C(=O)[C@H](CC(N)=O)NC(=O)[C@@H](N)CC(=O)O)[C@@H](C)CC)[C@@H](C)O)[C@@H](C)O)C(=O)N[C@H](C(=O)N[C@@H](Cc1ccccc1)C(=O)N[C@@H](C)C(=O)N[C@@H](CO)C(=O)N[C@H](C(N)=O)C(C)C)[C@@H](C)CC` [compound 176] (H-DNPSLSIDLPLQLLRTLLELARTQSQRERAEQNAIIFASV-NH2; N-terminus assumed): the half-maximal effective concentration (EC50) at CRF1R was at least 1 µM; at CRF2R, 0.0126 µM.

On to `CC[C@H](C)[C@H](NC(=O)[C@H](C)NC(=O)[C@H](CC(N)=O)NC(=O)[C@H](CCC(N)=O)NC(=O)[C@H](CCC(=O)O)NC(=O)[C@H](C)NC(=O)[C@H](CCCNC(=N)N)NC(=O)[C@H](CCC(=O)O)NC(=O)[C@H](CCCNC(=N)N)NC(=O)[C@H](CCC(N)=O)NC(=O)[C@H](CO)NC(=O)[C@H](CCC(N)=O)NC(=O)[C@@H](NC(=O)[C@H](CCCNC(=N)N)NC(=O)[C@H](C)NC(=O)[C@H](CC(C)C)NC(=O)[C@H](CCC(=O)O)NC(=O)[C@H](CC(C)C)NC(=O)[C@H](CC(C)C)NC(=O)[C@@H](NC(=O)[C@H](CCCNC(=N)N)NC(=O)[C@H](CC(C)C)NC(=O)[C@H](CC(C)C)NC(=O)[C@H](Cc1ccc(O)cc1)NC(=O)[C@H](CC(C)C)NC(=O)[C@@H]1CCCN1C(=O)[C@H](CC(C)C)NC(=O)[C@H](CC(=O)O)NC(=O)[C@@H](NC(=O)[C@H](CO)NC(=O)[C@H](CC(C)C)NC(=O)[C@H](CO)NC(=O)[C@@H]1CCCN1C(=O)[C@H](CC(N)=O)NC(=O)[C@@H](N)CC(=O)O)[C@@H](C)CC)[C@@H](C)O)[C@@H](C)O)C(=O)N[C@H](C(=O)N[C@@H](Cc1ccccc1)C(=O)N[C@@H](C)C(=O)N[C@@H](CO)C(=O)N[C@H](C(N)=O)C(C)C)[C@@H](C)CC` [compound 177] (H-DNPSLSIDLPLYLLRTLLELARTQSQRERAEQNAIIFASV-NH2; N-terminus assumed), for which the EC50 is 0.613 µM on CRF1R and 0.00563 µM on CRF2R.

On to `CC[C@H](C)[C@H](NC(=O)[C@H](C)NC(=O)[C@H](CC(N)=O)NC(=O)[C@H](CCC(N)=O)NC(=O)[C@H](CCC(=O)O)NC(=O)[C@H](C)NC(=O)[C@H](CCCNC(=N)N)NC(=O)[C@H](CCC(=O)O)NC(=O)[C@H](CCCNC(=N)N)NC(=O)[C@H](CCC(N)=O)NC(=O)[C@H](CO)NC(=O)[C@H](CCC(N)=O)NC(=O)[C@@H](NC(=O)[C@H](CCCNC(=N)N)NC(=O)[C@H](C)NC(=O)[C@H](CC(C)C)NC(=O)[C@H](CCC(=O)O)NC(=O)[C@H](CC(C)C)NC(=O)[C@H](CC(C)C)NC(=O)[C@@H](NC(=O)[C@H](CCCNC(=N)N)NC(=O)[C@H](CC(C)C)NC(=O)[C@H](CC(C)C)NC(=O)[C@H](Cc1ccccc1)NC(=O)[C@H](CC(C)C)NC(=O)[C@@H]1CCCN1C(=O)[C@H](CC(C)C)NC(=O)[C@H](CC(=O)O)NC(=O)[C@@H](NC(=O)[C@H](CO)NC(=O)[C@H](CC(C)C)NC(=O)[C@H](CO)NC(=O)[C@@H]1CCCN1C(=O)[C@H](CC(N)=O)NC(=O)[C@@H](N)CC(=O)O)[C@@H](C)CC)[C@@H](C)O)[C@@H](C)O)C(=O)N[C@H](C(=O)N[C@@H](Cc1ccccc1)C(=O)N[C@@H](C)C(=O)N[C@@H](CO)C(=O)N[C@H](C(N)=O)C(C)C)[C@@H](C)CC` [compound 178] (H-DNPSLSIDLPLFLLRTLLELARTQSQRERAEQNAIIFASV-NH2; N-terminus assumed), for which the figures for the EC50 on CRF1R and at CRF2R were at least 1 µM and 0.00517 µM, respectively.

For the compound `CC[C@H](C)[C@H](NC(=O)[C@H](C)NC(=O)[C@H](CC(N)=O)NC(=O)[C@H](CCC(N)=O)NC(=O)[C@H](CCC(=O)O)NC(=O)[C@H](C)NC(=O)[C@H](CCCNC(=N)N)NC(=O)[C@H](CCC(=O)O)NC(=O)[C@H](CCCNC(=N)N)NC(=O)[C@H](CCC(N)=O)NC(=O)[C@H](CO)NC(=O)[C@H](CCC(N)=O)NC(=O)[C@@H](NC(=O)[C@H](CCCNC(=N)N)NC(=O)[C@H](C)NC(=O)[C@H](CC(C)C)NC(=O)[C@H](CCC(=O)O)NC(=O)[C@H](CC(C)C)NC(=O)[C@H](CC(C)C)NC(=O)[C@@H](NC(=O)[C@H](CCCNC(=N)N)NC(=O)[C@H](CC(C)C)NC(=O)[C@H](CC(C)C)NC(=O)[C@H](Cc1c[nH]cn1)NC(=O)[C@H](CC(C)C)NC(=O)[C@@H]1CCCN1C(=O)[C@H](CC(C)C)NC(=O)[C@H](CC(=O)O)NC(=O)[C@@H](NC(=O)[C@H](CO)NC(=O)[C@H](CC(C)C)NC(=O)[C@H](CO)NC(=O)[C@@H]1CCCN1C(=O)[C@H](CC(N)=O)NC(=O)[C@@H](N)CC(=O)O)[C@@H](C)CC)[C@@H](C)O)[C@@H](C)O)C(=O)N[C@H](C(=O)N[C@@H](Cc1ccccc1)C(=O)N[C@@H](C)C(=O)N[C@@H](CO)C(=O)N[C@H](C(N)=O)C(C)C)[C@@H](C)CC` [compound 179] (H-DNPSLSIDLPLHLLRTLLELARTQSQRERAEQNAIIFASV-NH2; N-terminus assumed), the EC50 stood at 0.477 µM on CRF1R and 0.0102 µM on CRF2R.

Take `CC[C@H](C)[C@H](NC(=O)[C@H](C)NC(=O)[C@H](CC(N)=O)NC(=O)[C@H](CCC(N)=O)NC(=O)[C@H](CCC(=O)O)NC(=O)[C@H](C)NC(=O)[C@H](CCCNC(=N)N)NC(=O)[C@H](CCC(=O)O)NC(=O)[C@H](CCCNC(=N)N)NC(=O)[C@H](CCC(N)=O)NC(=O)[C@H](CO)NC(=O)[C@H](CCC(N)=O)NC(=O)[C@@H](NC(=O)[C@H](CCCNC(=N)N)NC(=O)[C@H](C)NC(=O)[C@H](CC(C)C)NC(=O)[C@H](CCC(=O)O)NC(=O)[C@H](CC(C)C)NC(=O)[C@H](CC(C)C)NC(=O)[C@@H](NC(=O)[C@H](CCCNC(=N)N)NC(=O)[C@H](CC(C)C)NC(=O)[C@H](CC(C)C)NC(=O)[C@@H](NC(=O)[C@H](Cc1ccccc1)NC(=O)[C@@H]1CCCN1C(=O)[C@H](CC(C)C)NC(=O)[C@H](CC(=O)O)NC(=O)[C@@H](NC(=O)[C@H](CO)NC(=O)[C@H](CC(C)C)NC(=O)[C@H](CO)NC(=O)[C@@H]1CCCN1C(=O)[C@H](CC(N)=O)NC(=O)[C@@H](N)CC(=O)O)[C@@H](C)CC)[C@@H](C)CC)[C@@H](C)O)[C@@H](C)O)C(=O)N[C@H](C(=O)N[C@@H](Cc1ccccc1)C(=O)N[C@@H](C)C(=O)N[C@@H](CO)C(=O)N[C@H](C(N)=O)C(C)C)[C@@H](C)CC` [compound 181] (H-DNPSLSIDLPFILLRTLLELARTQSQRERAEQNAIIFASV-NH2; N-terminus assumed): the EC50 was found to be 0.154 µM on CRF1R and 0.00522 µM on CRF2R.

Take `CC[C@H](C)[C@H](NC(=O)[C@H](C)NC(=O)[C@H](CC(N)=O)NC(=O)[C@H](CCC(N)=O)NC(=O)[C@H](CCC(=O)O)NC(=O)[C@H](C)NC(=O)[C@H](CCCNC(=N)N)NC(=O)[C@H](CCC(=O)O)NC(=O)[C@H](CCCNC(=N)N)NC(=O)[C@H](CCC(N)=O)NC(=O)[C@H](CO)NC(=O)[C@H](CCC(N)=O)NC(=O)[C@@H](NC(=O)[C@H](CCCNC(=N)N)NC(=O)[C@H](C)NC(=O)[C@H](CC(C)C)NC(=O)[C@H](CCC(=O)O)NC(=O)[C@H](CC(C)C)NC(=O)[C@H](CC(C)C)NC(=O)[C@@H](NC(=O)[C@H](CCCNC(=N)N)NC(=O)[C@H](CC(C)C)NC(=O)[C@H](CC(C)C)NC(=O)[C@H](Cc1ccc(O)cc1)NC(=O)[C@H](Cc1ccccc1)NC(=O)[C@@H]1CCCN1C(=O)[C@H](CC(C)C)NC(=O)[C@H](CC(=O)O)NC(=O)[C@@H](NC(=O)[C@H](CO)NC(=O)[C@H](CC(C)C)NC(=O)[C@H](CO)NC(=O)[C@@H]1CCCN1C(=O)[C@H](CC(N)=O)NC(=O)[C@@H](N)CC(=O)O)[C@@H](C)CC)[C@@H](C)O)[C@@H](C)O)C(=O)N[C@H](C(=O)N[C@@H](Cc1ccccc1)C(=O)N[C@@H](C)C(=O)N[C@@H](CO)C(=O)N[C@H](C(N)=O)C(C)C)[C@@H](C)CC` [compound 183] (H-DNPSLSIDLPFYLLRTLLELARTQSQRERAEQNAIIFASV-NH2; N-terminus assumed): the results for the concentration giving a half-maximal response (EC50) on CRF1R and on CRF2R were 0.415 µM and 0.00793 µM, respectively.
